# Source: US20100028358A1, “Compositions and Methods for Controlling Tissue Factor Signaling Specificity” (priority 2005, published 2010)
# Where two headings read alike, the source gives them in different places. Where a SMILES comes first, the peptide text is derived from it. Bridges are numbered along the chain shown (N, C = ends). [ ]: non-standard residue; d: D form. The star is where a group is joined. Ileψ(thiazoline)Cys = CC[C@H](C)[C@H](N)C1=N[C@H](C(=O)*)CS1; dOrn = NCCC[C@@H](N)C(=O)O
# Tests used:
# [1] = biological target: tissue factor (TF) coagulant activity (Homo sapiens, UniProt P13726); experiment: TF coagulant activity (Xa generation) on HaCaT cells; assay type: cell-based
# TF-PAR2 complex = TF-PAR2 complex (Homo sapiens, UniProt P13726); experiment: TF-PAR2 complex co-immunoprecipitation from HaCaT cells; assay type: cell-based; settings: Hg2+ pretreatment, high Ca2+ cells
# Excerpt: Additional studies as illustrated in FIG. 7 indicate that TF-VIIa signaling requires TF.PAR2 complex formation. […] Loading controls were not feasible due to background, because no PAR suitable antibody from a different species was available for Western-blotting. […] MPB-labeled cells were immunoprecipitated with MAb-9C3 or MAb-10H10 and probed for PDI, TF or thiol-biotinylation with MPB.
# PDI association with TF = PDI association with TF (Homo sapiens, UniProt P07237); experiment: Cell surface MPB/NHS labelling and TF immunoprecipitation (PDI association with TF)
# Description: Cell surface labelling, immunoprecipitation, confocal imaging Cells were washed and labelled in HEPES buffer with 1.5 mM calcium chloride with either 100 μM MPB or 0.5 mg/ml NHS biotin at 4° C. for 20 min. […] Blots were digitized for densitometry using NIH Image Scion. Cells were stained on ice with directly conjugated antibodies for confocal microscopy using a Nikon TE2000-U microscope. Optical sections of each fluorophor were merged using Adobe Photoshop.
# TF-VIIa signaling = TF-VIIa signaling in HaCaT cells (MAP kinase phosphorylation)
# Sequence of tissue factor (TF) coagulant activity (P13726 33-295): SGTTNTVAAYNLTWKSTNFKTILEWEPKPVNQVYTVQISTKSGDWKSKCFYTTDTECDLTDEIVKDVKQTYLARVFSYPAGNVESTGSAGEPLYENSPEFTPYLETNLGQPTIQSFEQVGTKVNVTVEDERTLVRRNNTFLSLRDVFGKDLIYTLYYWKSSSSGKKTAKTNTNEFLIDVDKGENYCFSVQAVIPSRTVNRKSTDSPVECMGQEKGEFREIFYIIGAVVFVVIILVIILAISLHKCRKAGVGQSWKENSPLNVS
# Sequence of PDI association with TF (P07237 18-508): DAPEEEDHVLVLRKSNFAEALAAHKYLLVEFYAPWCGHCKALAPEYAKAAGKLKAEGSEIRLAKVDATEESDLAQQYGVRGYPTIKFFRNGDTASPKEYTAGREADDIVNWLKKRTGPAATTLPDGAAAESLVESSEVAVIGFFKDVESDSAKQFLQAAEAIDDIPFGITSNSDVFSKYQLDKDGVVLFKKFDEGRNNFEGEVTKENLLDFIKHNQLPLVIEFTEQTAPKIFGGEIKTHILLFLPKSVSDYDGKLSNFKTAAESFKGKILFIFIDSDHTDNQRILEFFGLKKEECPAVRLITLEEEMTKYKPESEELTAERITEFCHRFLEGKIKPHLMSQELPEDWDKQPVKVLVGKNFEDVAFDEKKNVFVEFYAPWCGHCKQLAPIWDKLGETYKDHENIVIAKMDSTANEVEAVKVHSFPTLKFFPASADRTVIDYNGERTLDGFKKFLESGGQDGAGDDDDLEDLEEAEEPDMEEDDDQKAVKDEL
# Sequence of TF-PAR2 complex (P13726 33-295, one chain of several): as the sequence (P13726 33-295) above
smiles,measurement,setting,value
N[C@@H](CCC(=O)N[C@@H](CSN=O)C(=O)NCC(=O)O)C(=O)O [S-nitrosoglutathione],TF coagulant activity after Hg2+-induced activation and washout,[1],sufficient to suppress TF coagulant activity
[Cl][Hg][Cl] [HgCl2],Concentration required to enhance TF coagulant activity,[1],50 to 100 µM
same,HgCl2 activation of coagulation in the presence of bacitracin,[1],did not increase coagulation in the presence of bacitracin
same,TF coagulant activity in high Ca2+ cells,[1],increased TF coagulant activity substantially
same,TF coagulant activity in low Ca2+ cells,[1],little effect
same,PAR2 complex formation with TF in MAb-5G9 immunoprecipitates,TF-PAR2 complex,abolished PAR2 complex formation with TF
same,Association (co-precipitation) of PDI with TF,PDI association with TF,specifically disrupted the association of PDI with TF
CC[C@H](C)[C@H](N)C1=N[C@H](C(=O)N[C@@H](CC(C)C)C(=O)N[C@H](CCC(=O)O)C(=O)N[C@H](C(=O)N[C@H]2CCCCNC(=O)[C@H](CC(N)=O)NC(=O)[C@@H](CC(=O)O)NC(=O)[C@H](Cc3cnc[nH]3)NC(=O)[C@@H](Cc3ccccc3)NC(=O)[C@H]([C@@H](C)CC)NC(=O)[C@@H](CCCN)NC2=O)[C@@H](C)CC)CS1 [bacitracin] ({Ileψ(thiazoline)Cys}-L[dE]IK[dOrn]I[dF]H[dD]N; lactam 4-C),HgCl2 activation of coagulation in the presence of bacitracin,[1]; HgCl2 with bacitracin,reversible inhibitor of HgCl2 activation
same,TF coagulant activity in high Ca2+ cells,"[1]; high Ca2+ HaCaT cells, 100 μM HgCl2 for 2 minutes, bacitracin 3 mM",slightly increased coagulant function of TF
same,TF-VIIa signaling,"TF-VIIa signaling; HaCaT cells, 10 nM VIIa",inhibited TF-VIIa signaling
same,Association (co-precipitation) of PDI with TF,PDI association with TF; high Ca2+ HaCaT cells,prevented the co-precipitation of PDI with TF
"N[C@@H](CCC(=O)N[C@@H](CS)C(=O)NCC(=O)O)C(=O)O [GSH, reduced glutathione]",TF coagulant activity after Hg2+-induced activation and washout,[1],no effect on TF activity
C[C@@H]1C[C@@H]([C@H](O)CC2CC(=O)NC(=O)C2)C(=O)[C@@H](C)C1 [cycloheximide],TF-VIIa signaling,TF-VIIa signaling,prevented TF-VIIa signaling
